Results as given in BigSolDB 2.1.

CC(=O)Nc1ccc(O)cc1
solubility (mole fraction)
Details | 293.15 K | 298.15 K | 303.15 K | 308.15 K | 313.15 K
in ethanol | 0.0505 | 0.0546 | 0.062 | 0.067 | 0.0705
in propylene glycol | 0.0483 | 0.0516 | 0.0603 | 0.0664 | 0.0752
